Test systems include ACHN renal; CAKI-1 renal; HCC-2998 colon; MCF7 breast; NCI-H226 lung; RXF 393 renal; SF-268 CNS; SN12C renal; SNB-75 CNS; T-47D breast.
Holding throughout (assay): DTP human tumour cell line panel, 48 h

Several values for one entry are separate records, joined by “and”; a condition that tells them apart may be missing. Equal values may be shown once.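 How tested: cells in 96-well plates exposed to compound for 48 hours at five concentrations. At the GI50, growth is halved. TGI is the concentration that stops growth completely.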

Consider `CC(C)[NH-].CC(C)[NH-].O.O.[Cl][Pt+2][Cl]`, for which the GI50 – broadly, the concentration at which growth is held to half of that of the control – in the assay with ACHN renal is 14.1 µM; in the assay with CAKI-1 renal, 31.3 µM; with HCC-2998 colon, 87.9 µM; in the assay with MCF7 breast it was 19.4 µM; with NCI-H226 lung, 66 µM; with RXF 393 renal, 26.6 µM. Besides, the GI50 was 38.1 µM with SF-268 CNS, 35.9 µM in the assay with SN12C renal, 94.4 µM with SNB-75 CNS and 50.9 µM in the assay with T-47D breast. Further, the TGI (in general, the concentration at which net growth stops) with ACHN renal is 107 µM; with CAKI-1 renal, 124 µM; with HCC-2998 colon, 220 µM; in the assay on MCF7 breast it was 102 µM; in the assay with NCI-H226 lung, 259 µM; in the assay on RXF 393 renal, 137 µM. The TGI in the assay with SF-268 CNS is 231 µM; with SN12C renal, 133 µM; with SNB-75 CNS, 308 µM; in the assay on T-47D breast, 381 µM.

For the compound `CCn1c2ccc(C(=O)CCCN(C)C)cc2c2cc(C(=O)CCCN(C)C)ccc21`, the TGI with ACHN renal turned out to be 6.06 µM; with CAKI-1 renal, 7.42 µM; with HCC-2998 colon, 6.05 µM; in the assay with MCF7 breast it was 13.1 µM; with NCI-H226 lung, 8.61 µM; in the assay on RXF 393 renal, 4.3 µM. For the same compound, the concentration for total growth inhibition (TGI) in the assay on SF-268 CNS was determined as 6.62 µM; with SN12C renal, 5.87 µM; in the assay with SNB-75 CNS, 11.4 µM; with T-47D breast, 33.5 µM.

In the case of `O=C(NCCCCCCNC(=O)n1cc(F)c(=O)[nH]c1=O)NCCCOCCOCCOCCOCCOCCOCCOCCOCCOCCOCCOCCOCCOCCOCCOCCOCCOCCOCCOCCOCCOCCCNC(=O)C(O)C(O)C(OC1OC(CO)C(O)C(O)C1O)C(O)CO` (stereo not drawn), the TGI was over 100 µM in the assay on ACHN renal; over 100 µM in the assay on CAKI-1 renal; over 87.2 µM with HCC-2998 colon; over 46.8 µM in the assay on MCF7 breast; over 100 µM with NCI-H226 lung; over 100 µM in the assay on RXF 393 renal. Further, the TGI was over 100 µM with SF-268 CNS, over 100 µM in the assay on SN12C renal, over 43.7 µM in the assay with SNB-75 CNS and over 100 µM in the assay with T-47D breast.

As to `Cc1ccc(C(=O)N2CCN(C(=O)c3ccc(C)cc3)c3ccccc32)cc1`, the concentration for total growth inhibition (TGI) in the assay with ACHN renal is over 100 µM; in the assay with CAKI-1 renal, 82.7 µM; in the assay with HCC-2998 colon, 40.9 µM; with MCF7 breast it was over 100 µM; in the assay on NCI-H226 lung it was over 79.8 µM; in the assay with RXF 393 renal, 8.43 µM. The TGI with SF-268 CNS, with SN12C renal, in the assay with SNB-75 CNS and in the assay on T-47D breast was over 100 µM throughout.

Consider `CCOC(=O)NC1=C(N2CC2)C(=O)C(NC(=O)OCC)=C(N2CC2)C1=O`, for which the GI50 with ACHN renal was 1.32 µM and 1.06 µM; in the assay with CAKI-1 renal, 2.53 µM and 3.42 µM; with HCC-2998 colon, 20 µM and 10.3 µM; in the assay on MCF7 breast, 6.33 µM; in the assay on NCI-H226 lung it was 18 µM and 11 µM; with RXF 393 renal, 13 µM and 5.74 µM. The GI50 in the assay on SF-268 CNS was 5.55 µM and 4.88 µM; in the assay with SN12C renal it was 3.3 µM and 3.06 µM; in the assay on SNB-75 CNS, 9.24 µM. Also, the TGI was 20.3 µM and 12.7 µM and 23.6 µM in the assay with ACHN renal; 13.2 µM and 18.3 µM and 23.7 µM in the assay on CAKI-1 renal; 25 µM and 23.2 µM and 35 µM with HCC-2998 colon; 25 µM and 21.3 µM with MCF7 breast; 25 µM and 20 µM and 43 µM in the assay on NCI-H226 lung; 25 µM and 14.4 µM and 12.9 µM with RXF 393 renal. Further, the concentration for total growth inhibition (TGI) in the assay on SF-268 CNS was 25 µM and 20.7 µM and 26.9 µM; with SN12C renal, 25 µM and 14.2 µM and 7.15 µM; in the assay on SNB-75 CNS, 23.2 µM and 29.9 µM and 52 µM; in the assay on T-47D breast it was 16.8 µM.

As to `CN1C(=O)C(=Cc2cn(Cc3ccccc3)c3ccccc23)C(=O)N(C)C1=O`, the GI50 in the assay with ACHN renal is 51.8 µM; in the assay on HCC-2998 colon, over 33.7 µM; with MCF7 breast it was 21.4 µM; with NCI-H226 lung, 3.46 µM; with RXF 393 renal, 23.1 µM; in the assay with SF-268 CNS it was over 86.6 µM. Moreover, the figures for the GI50 in the assay on SN12C renal, in the assay on SNB-75 CNS and in the assay on T-47D breast were 54.8 µM, 34.2 µM and 3.91 µM, respectively. In addition, the TGI with ACHN renal is over 100 µM; in the assay with CAKI-1 renal, over 25.5 µM; in the assay with HCC-2998 colon it was over 70.8 µM; in the assay with MCF7 breast, over 100 µM; in the assay with NCI-H226 lung it was 27.8 µM; in the assay with RXF 393 renal, over 100 µM. Further, the TGI in the assay with SF-268 CNS is over 100 µM; with SN12C renal it was over 100 µM; with SNB-75 CNS it was over 100 µM; in the assay on T-47D breast it was over 75.3 µM.

Take `COc1ccc([I+]c2ccccc2)cc1`: the GI50 in the assay with ACHN renal is 42.7 µM; with CAKI-1 renal, 12.5 µM; with HCC-2998 colon, 10 µM; with MCF7 breast, 5.69 µM; with NCI-H226 lung it was 12.2 µM; with RXF 393 renal it was 13.9 µM. Further, the GI50 in the assay on SF-268 CNS was 6.3 µM; with SN12C renal, 40.3 µM; with SNB-75 CNS, 14 µM; in the assay on T-47D breast it was 9.22 µM. In addition, the TGI in the assay on ACHN renal, with CAKI-1 renal, with HCC-2998 colon, in the assay on MCF7 breast, with NCI-H226 lung and in the assay on RXF 393 renal was over 100 µM in each case. The total growth inhibition concentration (TGI) in the assay on SF-268 CNS, in the assay with SN12C renal, in the assay with SNB-75 CNS and in the assay on T-47D breast was over 100 µM in each case.

For the compound `Oc1ccc2ccccc2c1C1NN=C(c2ccccc2)S1` (stereo not drawn), the GI50 in the assay with ACHN renal is 0.343 µM; in the assay on CAKI-1 renal it was 0.339 µM; in the assay on HCC-2998 colon, 0.353 µM; with MCF7 breast, 0.426 µM; in the assay on NCI-H226 lung it was 0.647 µM; in the assay on RXF 393 renal, 0.812 µM. Besides, the GI50 with SF-268 CNS was 0.418 µM; in the assay with SN12C renal it was 0.61 µM; in the assay with SNB-75 CNS it was 1.02 µM; with T-47D breast it was 0.525 µM. Further, the TGI in the assay on ACHN renal is over 40 µM; in the assay on CAKI-1 renal it was 17.8 µM; in the assay with HCC-2998 colon it was 16.6 µM; in the assay with MCF7 breast it was 21.2 µM; in the assay with NCI-H226 lung, 14.2 µM; with RXF 393 renal it was 20 µM. Also, the TGI in the assay with SF-268 CNS is 29.1 µM; in the assay on SN12C renal it was 35.7 µM; in the assay on SNB-75 CNS, 32.2 µM; with T-47D breast it was 33.5 µM.

The values above are taken from PubChem BioAssay (NCI).
